Data as given in ChEMBL document CHEMBL1201862, “PubChem BioAssay data set” (2004).
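Step 1: Grow cells in 96-well plates. Step 2: Expose to compound for 48 hours at 5 concentrations. Step 3: Interpolate endpoints linearly; if unreached, use highest concentration. GI50 = concentration required for 50% inhibition of growth.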 Activity calls are given as the source filed them. Cut-off read from the data, not from the text of the source: active = GI50 up to about 1.1 µM and inactive = higher. Peptide text beside a SMILES is read from it. * marks the point of attachment. X27 = Clc1c(Cl)c(Cl)c(O*)c(Cl)c1Cl; Boc = CC(C)(C)OC(=O)*; OBn = c1ccc(CO*)cc1; Bn = c1ccc(C*)cc1

Experiments:
Assay in all cases: inhibition of tumour cell growth, NCI panel, 48 h
[1] = tested on: HCT-15
[2] = tested on: UACC-257
[3] = tested on: SK-MEL-5
[4] = tested on: SN12C
[5] = tested on: BT-549
[6] = tested on: OVCAR-8
[7] = tested on: Malme-3M
[8] = tested on: LOX IMVI
[9] = tested on: K562
[10] = tested on: SNB-19
[11] = tested on: KM12
[12] = tested on: SR
[13] = tested on: MOLT-4
[14] = tested on: MDA-MB-231
[15] = tested on: COLO 205
[16] = tested on: NCI-H226
[17] = tested on: RPMI-8226
[18] = tested on: OVCAR-5
[19] = tested on: RXF 393
[20] = tested on: NCI/ADR-RES

| SMILES | GI50 [1] [µM] | GI50 [2] | GI50 [3] | GI50 [4] | GI50 [5] | GI50 [6] | GI50 [7] | GI50 [8] | GI50 [9] | GI50 [10] | GI50 [11] | GI50 [12] | GI50 [13] | GI50 [14] | GI50 [15] | GI50 [16] | GI50 [17] | GI50 [18] | GI50 [19] | GI50 [20] |
| --- | --- | --- | --- | --- | --- | --- | --- | --- | --- | --- | --- | --- | --- | --- | --- | --- | --- | --- | --- | --- |
| C[C@@H]1CC[C@H]2[C@H](C)C(OC3O[C@@H]4O[C@@]5(C)CC[C@H]6[C@H](C)CC[C@@H]([C@@H]3C)[C@@]46O5)O[C@@H]3O[C@@]4(C)CC[C@@H]1[C@]32O4 (some centres undefined) | > 100 | > 100 µM (inactive) | > 100 µM (inactive) | > 100 µM (inactive) | > 100 µM (inactive) | > 100 µM (inactive) | > 100 µM (inactive) | > 100 µM (inactive) | > 100 µM (inactive) | > 100 µM (inactive) | > 100 µM (inactive) | > 100 µM (inactive) | > 100 µM (inactive) | > 100 µM (inactive) | > 100 µM (inactive) | > 100 µM (inactive) | > 100 µM (inactive) | > 100 µM (inactive) |  |  |
| CC(C)N(C(=O)C12C3C4C5(C#N)C3C1(C#N)C5C42I)C(C)C (centres undefined) | > 78.5 | > 100 µM (inactive) | > 100 µM (inactive) | > 100 µM (inactive) |  | > 85.5 µM (inactive) | > 100 µM (inactive) | > 49.5 µM (inactive) | > 42.2 µM (inactive) | > 100 µM (inactive) | > 100 µM (inactive) | 13.4 µM (inactive) | 40.8 µM (inactive) |  | > 45.4 µM (inactive) | > 100 µM (inactive) | > 46.1 µM (inactive) | > 100 µM (inactive) | > 100 µM (inactive) |  |
| O=c1[nH]c(=O)n(C2CC(O)C(COP(=O)(OCC(Cl)(Cl)Cl)OCC(Cl)(Cl)Cl)O2)cc1F (centres undefined) | > 56.1 | > 100 µM (inactive) | 1.97 µM (inactive) | 26.1 µM (inactive) |  | 0.556 µM (active) | 6.05 µM (inactive) | > 35.1 µM (inactive) | 4.11 µM (inactive) | 7.98 µM (inactive) | > 100 µM (inactive) | 0.391 µM (active) | 1.1 µM (active) | > 47 µM (inactive) | 23.5 µM (inactive) | 95.1 µM (inactive) | 3.72 µM (inactive) | > 94.2 µM (inactive) |  | 1.29 µM (inactive) |
| CC(C)CC(NC(=O)C(CCC(=O)OCc1ccccc1)NC(=O)OC(C)(C)C)C(=O)NC(COCc1ccccc1)C(=O)NC(Cc1ccccc1)C(=O)Oc1c(Cl)c(Cl)c(Cl)c(Cl)c1Cl (centres undefined) (Boc-E(OBn)LS(Bn)F-X27; configuration not given here) | 25.8 | 28.2 µM (inactive) | 18.4 µM (inactive) | 29.1 µM (inactive) |  | 27 µM (inactive) | 33.1 µM (inactive) | > 100 µM (inactive) |  | 28.7 µM (inactive) | 20.4 µM (inactive) | 29.2 µM (inactive) | 22.6 µM (inactive) | 15.6 µM (inactive) | 26.2 µM (inactive) |  | 20.5 µM (inactive) | 25.3 µM (inactive) | 21.4 µM (inactive) | 27.4 µM (inactive) |
| O=C(NCc1ccccc1)C1C(=O)C(=O)N(Cc2ccccc2)C1=O (centres undefined) | > 100 | > 100 µM (inactive) | > 100 µM (inactive) | > 100 µM (inactive) |  | > 100 µM (inactive) | > 100 µM (inactive) | > 100 µM (inactive) | > 100 µM (inactive) | > 100 µM (inactive) | > 100 µM (inactive) | > 100 µM (inactive) | > 100 µM (inactive) |  | > 100 µM (inactive) | > 100 µM (inactive) | > 100 µM (inactive) | > 100 µM (inactive) | > 100 µM (inactive) |  |
| CC1=C(/C=C/C(C)=C/C=C/C(C)=C/CO)C(C)(C)CCC1 [RETINOL] | 30.6 | 27.6 µM (inactive) | 17.1 µM (inactive) | 21.7 µM (inactive) |  |  | 11.1 µM (inactive) | 24.6 µM (inactive) | 26.5 µM (inactive) | 22.1 µM (inactive) | 36.1 µM (inactive) | 18.1 µM (inactive) | 18 µM (inactive) | 29 µM (inactive) | 19.1 µM (inactive) | 20.7 µM (inactive) |  | 24.9 µM (inactive) | 12.4 µM (inactive) | 19.5 µM (inactive) |
| O=C(OC[C@H]1C[C@H]2C(=O)OCCC[C@H]2O1)c1ccccc1 | > 100 | > 100 µM (inactive) | > 100 µM (inactive) | > 100 µM (inactive) |  | > 100 µM (inactive) |  |  | > 100 µM (inactive) | > 100 µM (inactive) | > 100 µM (inactive) | > 100 µM (inactive) | > 100 µM (inactive) | > 100 µM (inactive) | > 100 µM (inactive) | > 100 µM (inactive) | > 100 µM (inactive) | > 100 µM (inactive) |  | > 100 µM (inactive) |
| S=c1[nH]c(=S)c2nnn(-c3ccccc3)c2[nH]1 | > 100 | > 100 µM (inactive) | > 100 µM (inactive) | > 100 µM (inactive) |  | > 100 µM (inactive) | > 100 µM (inactive) | > 100 µM (inactive) | > 100 µM (inactive) | > 100 µM (inactive) | > 100 µM (inactive) | > 100 µM (inactive) | > 100 µM (inactive) |  | > 100 µM (inactive) | > 100 µM (inactive) | > 100 µM (inactive) | > 100 µM (inactive) | > 100 µM (inactive) |  |
| COc1ccc(-c2c(C(C)=O)c(-c3ccccc3)n(C3OC(COC(C)=O)C(OC(C)=O)C(OC(C)=O)C3OC(C)=O)c(=S)c2C#N)cc1 (centres undefined) | > 100 | > 100 µM (inactive) | > 100 µM (inactive) | > 100 µM (inactive) |  | > 100 µM (inactive) | > 100 µM (inactive) | > 100 µM (inactive) | > 100 µM (inactive) | > 100 µM (inactive) | > 100 µM (inactive) | > 100 µM (inactive) | > 100 µM (inactive) | > 100 µM (inactive) | > 100 µM (inactive) | > 100 µM (inactive) |  | > 100 µM (inactive) | > 100 µM (inactive) | > 100 µM (inactive) |
| CCc1c2c(nc3ccc(O)cc13)-c1cc3c(c(=O)n1C2)COC(=O)[C@]3(O)CC [7-ETHYL-10-HYDROXYCAMPTOTHECIN] | 0.00711 | 0.013 µM (active) |  | < 0.001 µM (active) | < 0.001 µM (active) |  |  | < 0.001 µM (active) |  | < 0.001 µM (active) | 0.0212 µM (active) | < 0.001 µM (active) | < 0.001 µM (active) | 0.00344 µM (active) | 0.0556 µM (active) | < 0.001 µM (active) | 0.236 µM (active) | 0.00472 µM (active) |  |  |
| COc1ccc(NC2Oc3cc4c(cc3C(c3cc(OC)c(OC)c(OC)c3)C2C)OCO4)cc1 (centres undefined) | 0.485 | 0.605 µM (active) | 0.33 µM (active) | 0.541 µM (active) | 1.04 µM (active) | 0.655 µM (active) | 0.365 µM (active) | 0.476 µM (active) | 0.223 µM (active) | 0.607 µM (active) | 0.381 µM (active) | 0.352 µM (active) | 0.422 µM (active) | 0.881 µM (active) | 0.386 µM (active) | 0.552 µM (active) | 0.525 µM (active) | 2.17 µM (inactive) | 0.437 µM (active) |  |
| COC(=O)c1nc(-c2nc(CCNC(=O)OC(C)(C)C)sc2Cl)sc1Cl | 36.3 | > 100 µM (inactive) | 31.8 µM (inactive) | > 10 µM (inactive) | 34.5 µM (inactive) | 35.5 µM (inactive) | 66.8 µM (inactive) |  | 36.7 µM (inactive) | > 100 µM (inactive) | 55.3 µM (inactive) | 35.2 µM (inactive) | 23.8 µM (inactive) |  | 98.4 µM (inactive) | 33.3 µM (inactive) | 41.1 µM (inactive) | > 100 µM (inactive) | > 100 µM (inactive) | 32.2 µM (inactive) |
| NNC(=O)CNC(=O)CSc1nnc(COc2ccc(Cl)cc2)n1-c1ccccc1 | > 100 | > 100 µM (inactive) |  | > 100 µM (inactive) |  | > 100 µM (inactive) | > 100 µM (inactive) | > 100 µM (inactive) | > 100 µM (inactive) | > 100 µM (inactive) | > 100 µM (inactive) |  | > 100 µM (inactive) | > 100 µM (inactive) | > 100 µM (inactive) | > 100 µM (inactive) |  | > 100 µM (inactive) | > 100 µM (inactive) | > 100 µM (inactive) |
| Cc1nc2cccc(F)c2c(=O)n1-c1nnc(C(F)(F)F)s1 | > 10 | > 10 µM (inactive) | > 10 µM (inactive) | > 10 µM (inactive) |  | > 10 µM (inactive) |  | > 10 µM (inactive) | > 10 µM (inactive) | > 10 µM (inactive) | > 10 µM (inactive) | > 10 µM (inactive) | > 10 µM (inactive) | > 10 µM (inactive) | > 10 µM (inactive) | > 10 µM (inactive) | > 10 µM (inactive) | > 10 µM (inactive) | > 10 µM (inactive) | > 10 µM (inactive) |
| COc1ccc(C2C(Cl)C(=O)N2n2cnc3ccccc3c2=O)cc1 (centres undefined) | > 100 | > 100 µM (inactive) | 87.1 µM (inactive) | > 100 µM (inactive) |  | 51.5 µM (inactive) | > 100 µM (inactive) | 77.6 µM (inactive) | 89.7 µM (inactive) | > 100 µM (inactive) | > 100 µM (inactive) | 33 µM (inactive) | 51.3 µM (inactive) |  | 62.2 µM (inactive) | > 100 µM (inactive) | 33.4 µM (inactive) | > 100 µM (inactive) | 30.8 µM (inactive) |  |
| O=[N+]([O-])c1ccc(C2N3CCCCC3[C@H]3CCCCN23)cc1 (some centres undefined) | > 100 | > 100 µM (inactive) | > 100 µM (inactive) | > 100 µM (inactive) |  | > 100 µM (inactive) | > 100 µM (inactive) | > 100 µM (inactive) | > 100 µM (inactive) | > 100 µM (inactive) | > 100 µM (inactive) | > 100 µM (inactive) | > 100 µM (inactive) |  | > 100 µM (inactive) | > 100 µM (inactive) | > 100 µM (inactive) | > 100 µM (inactive) | > 100 µM (inactive) |  |
